# PMC13083723 (Patterns, 2026)
# Several values for one entry are separate records, joined by “and”; a condition that tells them apart may be missing. Equal entries are not always repeated. Structures can show the parent of a compound that is named as a salt. Where two headings read alike, the source gives them in different places.
# Key:
# [1] = test system: A549-ACE2 cells; assay: cells; format: cell-based; conditions: A549-ACE2, 24 h, read-out: PLD_Effect(%) A549-ACE2
# [2] = cited from earlier work
# [3] = test system: Vero-E6 cells; assay: cells; format: cell-based; conditions: Chlorocebus sabaeus, Vero C1008, 24 h, read-out: PLD_Effect(%) VERO-E6
# [4] = value is the negative log10 of mol/L
Compound,activation at 10 µM [1] [%],activation at 10 µM [3] [%],pchembl_value (AC50) [2],other results
Cn1ncc(Cl)c1-c1cc(C(=O)N[C@H](CN)Cc2cccc(F)c2)sc1Cl [Afuresertib],77.1,69.5,–,"Ki ([2]; read-out: Ki (value)): 0.08 nM; pchembl_value (IC50) [2, 4]: 10.10 and 8.70 and 8.59; pchembl_value (Ki) [2, 4]: 10.10"
CC(C)c1cnn2c(NCc3ccccc3)cc(NCCCCCCN)nc12 [BS-181],63.8,53.6,–,IC50 ([2]; read-out: IC50 (value)): 21 nM
Clc1ccc(C(OCCN2CCCCC2)c2ccccc2)cc1 (stereo not shown) [CLOPERASTINE HYDROCHLORIDE],72.5,63.9,6.48,AC50 ([2]; read-out: AC50 (value)): 331 nM
CCN(CC)CCOC(=O)C(c1ccccc1)C1CCCCC1 (stereo not shown) [DROFENINE HYDROCHLORIDE],53.9,52,6.66 and 7.47,–
CNCC[C@H](Oc1cccc2ccccc12)c1cccs1 [DULOXETINE HYDROCHLORIDE],91.5,92.6,–,IC50 [2]: 440 nM
CNCCC(Oc1ccc(C(F)(F)F)cc1)c1ccccc1 (stereo not shown) [FLUOXETINE HYDROCHLORIDE],109,54.3,7.03 and 7.53,–
OCCN1CCN(CC/C=C2/c3ccccc3Sc3ccc(C(F)(F)F)cc32)CC1 [Flupentixol],81.9,83.6,–,Log IC50 (value) [2]: -8.65; pchembl_value (Log IC50) [2]: 8.65
CCCCCCCCC(=O)N[C@H](CN1CCCC1)[C@H](O)c1ccc2c(c1)OCCO2 [Genz-123346 (free base)],81.6,63.4,–,"IC50 ([2]; read-out: IC50 (value)): 9 nM; pchembl_value (IC50) [2, 4]: 8.05"
O=S(=O)(NCCNC/C=C/c1ccc(Br)cc1)c1cccc2cnccc12 [H-89],98.9,60.8,–,"IC50 ([2]; read-out: IC50 (value)): 590 nM; Kd ([2]; read-out: Kd (value)): 24 nM; pchembl_value (Kd) [2, 4]: 7.62"
CN1CCCN(C(c2ccccc2)c2ccc(Cl)cc2)CC1 (stereo not shown) [Homochlorcyclizine?2HCl],69.6,82.5,6.64 and 7.14 and 6.83,–
CN(C(=O)Cc1ccc(Cl)c(Cl)c1)[C@H](CN1CCCC1)c1ccccc1 [ICI-199441],99.8,53.5,–,"IC50 ([2]; read-out: IC50 (value)): 26 nM; pchembl_value (IC50) [2, 4]: 7.58"
N[C@H]1CC[C@H](N[C@@H]2C[C@H]2c2ccccc2)CC1 [ORY-1001 (RG-6016) 2HCl],98.4,65.7,–,Ki [2]: 50 nM; pchembl_value [2]: 9.85 and 7.30 and 7.48
CC(CN1c2ccccc2Sc2ccccc21)N(C)C (stereo not shown) [PROMETHAZINE HYDROCHLORIDE],96.5,55.4,–,AC50 [2]: 30 nM
CCCOC(C(=O)OC1CCN(C)CC1)(c1ccccc1)c1ccccc1 [Propiverine Hydrochloride],102,63.8,6.08 and 6.12,AC50 ([2]; read-out: AC50 (value)): 830 nM and 750 nM
CN1CCN(C(=O)CN[C@@H]2C[C@H]2c2ccc(OCc3ccccc3)cc2)CC1 [RN-1],70.6,87.7,–,"pchembl_value (IC50) [2, 4]: 8.51 and 6.29"
C=CCN(C)CCCCCCOc1ccc(C(=O)c2ccc(Br)cc2)c(F)c1 [Ro 48-8071 (fumarate)],102,92.9,–,Log IC50 (value) [2]: -8.19; pIC50 (value) [2]: 6.65; pchembl_value (Log IC50) [2]: 8.19; pchembl_value (pIC50) [2]: 6.65
